Experimental data reported in ChEMBL document CHEMBL5223082, “Alkyl-Aryl-Vancomycins: Multimodal Glycopeptides with Weak Dependence on the Bacterial Metabolic State” (J Med Chem, 2021).
In brackets after ≈: the same amount, converted by molar mass. Activity calls are given as the source filed them. The calls are words filed in the database; no cut-off is given here.

Experiments:
[1] = tested on: Cell membrane; assay: Induction of cytoplasmic membrane depolarization in Bacillus subtilis assessed as increase in fluorescence intensity at 10 uM measured for 35 to 40 mins by DiSC3(5) dye based fluorescence analysis; type: subcellular; details: time 35-40 min
[2] = tested on: Staphylococcus aureus; assay: Ratio of MIC for antibacterial activity against Methicillin-resistant Staphylococcus aureus ATCC 33591 measured after 27 passages to MIC for antibacterial activity against Methicillin-resistant Staphylococcus aureus ATCC 33591 measured after 18 to 24 hrs incubation; type: functional
[3] = tested on: Cell membrane; assay: Induction of cytoplasmic membrane depolarization in Methicillin-resistant Staphylococcus aureus ATCC 33591 assessed as increase in fluorescence intensity at 10 uM measured for 35 to 40 mins by DiSC3(5) dye based fluorescence analysis; type: subcellular; details: time 35-40 min
[4] = tested on: Staphylococcus aureus; assay: Antibiofilm activity against Methicillin-resistant Staphylococcus aureus ATCC 33591 assessed as bacterial biofilm thickness at 20 uM incubated for 24 hrs by confocal laser scanning microscopy (reference value: 8 micrometer); type: functional
[5] = tested on: Enterococcus; assay: Antibacterial activity against Vancomycin-resistant Enterococci NR30909 assessed as inhibition of bacterial growth incubated for 18 to 24 hrs by CLSI microbroth dilution method; type: functional; details: time 18-24 hrs
[6] = tested on: Staphylococcus aureus; assay: Antibacterial activity against Vancomycin-resistant Staphylococcus aureus 1 assessed as inhibition of bacterial growth incubated for 18 to 24 hrs by CLSI microbroth dilution method; type: functional; details: time 18-24 hrs
[7] = tested on: Staphylococcus aureus; assay: Antibacterial activity against Methicillin-resistant Staphylococcus aureus ATCC 33591 assessed as inhibition of bacterial growth preincubated compound with N,N'-diacetyl-L-Lys-D-Ala-D-Ala for 10 mins followed by incubation with bacterial culture for 18 to 24 hrs by CLSI microbroth dilution method; type: functional; details: time 1090-1450 min
[8] = tested on: Bacillus subtilis; assay: Antibacterial activity against Bacillus subtilis 168 assessed as concentration that requires for bacterial growth retardation measured for every 30 mins; type: functional
[9] = tested on: Staphylococcus aureus; assay: Antibacterial activity against Methicillin-resistant Staphylococcus aureus ATCC 33591 assessed as inhibition of bacterial growth preincubated compound with teichoic-acid for 1 hr followed by incubation with bacterial culture for 18 to 24 hrs by CLSI microbroth dilution method; type: functional; details: time 19-25 hrs
[10] = tested on: Staphylococcus aureus; assay: Antibacterial activity against Methicillin-resistant Staphylococcus aureus ATCC 33591 assessed as log reduction in bacterial colonies at 10XMIC incubated for 1 hr in broth solution followed by plating on nutrient agar plate; type: functional
[11] = tested on: Enterococcus; assay: Antibacterial activity against Vancomycin-resistant Enterococci NR30903 assessed as inhibition of bacterial growth incubated for 18 to 24 hrs by CLSI microbroth dilution method; type: functional; details: time 18-24 hrs
[12] = tested on: Bacillus subtilis; assay: Inhibition of cell wall biosynthesis in Bacillus subtilis 168 assessed as bubble-like formation on bacterial cell surface at PEC incubated for 15 mins by light microscopic analysis; type: functional, organism-based
[13] = tested on: Staphylococcus aureus; assay: Antibiofilm activity against Methicillin-resistant Staphylococcus aureus ATCC 33591 assessed as log reduction in bacterial viability within the biofilms at 20 uM incubated for 24 hrs in broth solution followed by culturing on agar plate for 24 hrs by spot plating method; type: functional; details: time 48 hrs
[14] = tested on: Cell membrane; assay: Induction of cytoplasmic membrane depolarization in Vancomycin-resistant Enterococci assessed as increase in fluorescence intensity at 10 uM measured for 35 to 40 mins by DiSC3(5) dye based fluorescence analysis; type: subcellular; details: Enterococcus, time 35-40 min
[15] = tested on: Staphylococcus aureus; assay: Antibacterial activity against Methicillin-resistant Staphylococcus aureus ATCC 33591 assessed as inhibition of bacterial growth incubated for 18 to 24 hrs by CLSI microbroth dilution method; type: functional; details: time 18-24 hrs
[16] = tested on: Staphylococcus aureus; assay: Bactericidal activity against methicillin-resistant Staphylococcus aureus ATCC 33591 assessed as reduction in bacterial colonies at MIC to 8XMIC incubated for 6 hrs in broth solution followed by culturing for 24 hrs on agar plate by spot plating method; type: functional, organism-based; details: time 30.0 hrs
[17] = tested on: Staphylococcus aureus; assay: Antibacterial activity against Vancomycin-resistant Staphylococcus aureus 4 assessed as inhibition of bacterial growth incubated for 18 to 24 hrs by CLSI microbroth dilution method; type: functional; details: time 18-24 hrs
[18] = tested on: Staphylococcus aureus; assay: Ratio of MIC for antibacterial activity against Methicillin-resistant Staphylococcus aureus ATCC 33591 in presence of N,N'-diacetyl-L-Lys-D-Ala-D-Ala to MIC for antibacterial activity against Methicillin-resistant Staphylococcus aureus ATCC 33591; type: functional
[19] = tested on: Enterococcus; assay: Antibacterial activity against Vancomycin-resistant Enterococci ATCC 51559 assessed as inhibition of bacterial growth incubated for 18 to 24 hrs by CLSI microbroth dilution method; type: functional; details: time 18-24 hrs
[20] = target: T1, Septum site-determining protein MinD (Bacillus subtilis (strain 168)) (UniProt Q01464); assay: Delocalization of GFP tagged-MinD in Bacillus subtilis 168 at PEC incubated for 15 mins by fluorescence microscopy
T1 sequence (whole entry): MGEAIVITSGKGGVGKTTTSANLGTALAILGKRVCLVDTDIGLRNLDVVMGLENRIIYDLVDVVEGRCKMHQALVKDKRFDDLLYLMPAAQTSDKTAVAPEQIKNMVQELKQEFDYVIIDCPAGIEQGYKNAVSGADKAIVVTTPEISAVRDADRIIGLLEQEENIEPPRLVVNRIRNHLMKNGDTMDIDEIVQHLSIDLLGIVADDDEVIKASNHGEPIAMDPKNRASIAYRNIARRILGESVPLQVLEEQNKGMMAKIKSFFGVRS

[21] = tested on: Staphylococcus aureus; assay: Antibacterial activity against Vancomycin-resistant Staphylococcus aureus 12 assessed as inhibition of bacterial growth incubated for 18 to 24 hrs by CLSI microbroth dilution method; type: functional; details: time 18-24 hrs
[22] = tested on: Staphylococcus aureus; assay: Antibacterial activity against Methicillin-resistant Staphylococcus aureus ATCC 33591 persister cells assessed as reduction in bacterial colonies at 40 uM incubated for 24 hrs in broth solution followed by incubation on agar plate for 48 hrs by spot plating method; type: functional, organism-based; details: time 72.0 hrs
[23] = tested on: Staphylococcus aureus; assay: Antibacterial activity against Methicillin-resistant Staphylococcus aureus ATCC 33591 assessed as time duration of post-antibiotic effect for suppression of bacterial growth at 10XMIC incubated for 1 hr in broth solution followed by washing for drug removal and subsequent plating on nutrient agar plate; type: functional
[24] = tested on: Enterococcus; assay: Antibacterial activity against Vancomycin-resistant Enterococci ATCC 51575 assessed as inhibition of bacterial growth incubated for 18 to 24 hrs by CLSI microbroth dilution method; type: functional; details: time 18-24 hrs
[25] = Induction of hemolysis in human erythrocytes incubated for 1 hr by microtiter plater reader analysis; type: toxicity, cell-based, Erythrocyte
[26] = tested on: Enterococcus; assay: Potency index, ratio of Vancomycin MIC to test compound MIC for antibacterial activity against Vancomycin-resistant Enterococci ATCC 51575; type: functional
[27] = tested on: Staphylococcus aureus; assay: Potency index, ratio of Vancomycin MIC to test compound MIC for antibacterial activity against Methicillin-resistant Staphylococcus aureus ATCC 33591; type: functional
[28] = tested on: Staphylococcus aureus; assay: Potency index, ratio of Vancomycin MIC to test compound MIC for antibacterial activity against Vancomycin-resistant Staphylococcus aureus 12; type: functional
[29] = Induction of hemolysis in human erythrocytes at 250 uM incubated for 1 hr by microtiter plater reader analysis; type: toxicity, cell-based, Erythrocyte; details: read-out: Activity
[30] = tested on: Enterococcus; assay: Potency index, ratio of Vancomycin MIC to test compound MIC for antibacterial activity against Vancomycin-resistant Enterococci NR30909; type: functional, NR 30909
[31] = tested on: Enterococcus; assay: Potency index, ratio of Vancomycin MIC to test compound MIC for antibacterial activity against Vancomycin-resistant Enterococci NR30903; type: functional, NR 30903
[32] = tested on: Staphylococcus aureus; assay: Potency index, ratio of Vancomycin MIC to test compound MIC for antibacterial activity against Vancomycin-resistant Staphylococcus aureus 4; type: functional
[33] = tested on: Staphylococcus aureus; assay: Potency index, ratio of Vancomycin MIC to test compound MIC for antibacterial activity against Vancomycin-resistant Staphylococcus aureus 1; type: functional
[34] = tested on: Enterococcus; assay: Potency index, ratio of Vancomycin MIC to test compound MIC for antibacterial activity against Vancomycin-resistant Enterococci ATCC 51559; type: functional

Structure (SMILES)	MIC [5] [µM]	MIC [6] [µM]	MIC [11] [µM]	MIC [15] [µM]	MIC [17] [µM]	MIC [19] [µM]	MIC [21] [µM]	MIC [24] [µM]	HC50 at 1 h [25] [µM]	Ratio [26]	Ratio [27]	Ratio [28]	hemolysis at 1 h, 250 µM [29] [%]	Ratio [30]	Ratio [31]	Ratio [32]	Ratio [33]	Ratio [34]	further results
CN[C@H](CC(C)C)C(=O)N[C@H]1C(=O)N[C@@H](CC(N)=O)C(=O)N[C@H]2C(=O)N[C@H]3C(=O)N[C@H](C(=O)N[C@H](C(=O)O)c4cc(O)cc(O)c4-c4cc3ccc4O)[C@H](O)c3ccc(c(Cl)c3)Oc3cc2cc(c3O[C@@H]2O[C@H](CO)[C@@H](O)[C@H](O)[C@H]2O[C@H]2C[C@](C)(N)[C@H](O)[C@H](C)O2)Oc2ccc(cc2Cl)[C@H]1O [VANCOMYCIN]	346 (≈ 501 µg/mL)	346 (≈ 501 µg/mL)	692 (≈ 1000 µg/mL)	0.6 (≈ 0.87 µg/mL)	346 (≈ 501 µg/mL)	1380 (≈ 2010 µg/mL)	346 (≈ 501 µg/mL)	346 (≈ 501 µg/mL)											Activity [1]: inactive; Ratio [2]: 2; Activity [3]: inactive; Activity [4]: 7 um; MIC [7]: > 30 µM; EC [8]: 0.4 µM; MIC [9]: 0.6 µM (≈ 0.87 µg/mL); Activity [10]: 0.5 log10CFU/ml; inhibition [12]: Active; Activity [13]: 0.9 log10CFU/ml; Activity [14]: inactive; Activity [16]: Active; Ratio [18]: >40; Activity [20]: inactive; Activity [22]: inactive; Time [23]: 6 h
CCCCCCNC(=O)C[N+](C)(C)CCCNC(=O)c1ccc(CN[C@@]2(C)C[C@H](O[C@H]3[C@H](Oc4c5cc6cc4Oc4ccc(cc4Cl)[C@@H](O)[C@@H](NC(=O)[C@@H](CC(C)C)NC)C(=O)N[C@@H](CC(N)=O)C(=O)N[C@H]6C(=O)N[C@H]4C(=O)N[C@H](C(=O)N[C@H](C(=O)O)c6cc(O)cc(O)c6-c6cc4ccc6O)[C@H](O)c4ccc(c(Cl)c4)O5)O[C@H](CO)[C@@H](O)[C@@H]3O)O[C@@H](C)[C@H]2O)cc1	14.9	14.9	7.4	0.4	29.8	> 30	7.4	> 30	> 250	10	2	10	1	10	10	10	10	10	
CCCCCCCCNC(=O)c1ccc(CN[C@@]2(C)C[C@H](O[C@H]3[C@H](Oc4c5cc6cc4Oc4ccc(cc4Cl)[C@@H](O)[C@@H](NC(=O)[C@@H](CC(C)C)NC)C(=O)N[C@@H](CC(N)=O)C(=O)N[C@H]6C(=O)N[C@H]4C(=O)N[C@H](C(=O)N[C@H](C(=O)O)c6cc(O)cc(O)c6-c6cc4ccc6O)[C@H](O)c4ccc(c(Cl)c4)O5)O[C@H](CO)[C@@H](O)[C@@H]3O)O[C@@H](C)[C@H]2O)cc1	2.1 (≈ 3.56 µg/mL)	4.2 (≈ 7.12 µg/mL)	4.2 (≈ 7.12 µg/mL)	1 (≈ 1.69 µg/mL)	2.1 (≈ 3.56 µg/mL)	8.3 (≈ 14.1 µg/mL)	0.3 (≈ 0.508 µg/mL)	1 (≈ 1.69 µg/mL)	> 250	166	2	166		166	166	166	166	166	
CN[C@H](CC(C)C)C(=O)N[C@H]1C(=O)N[C@@H](CC(N)=O)C(=O)N[C@H]2C(=O)N[C@H]3C(=O)N[C@H](C(=O)N[C@H](C(=O)O)c4cc(O)cc(O)c4-c4cc3ccc4O)[C@H](O)c3ccc(c(Cl)c3)Oc3cc2cc(c3O[C@@H]2O[C@H](CO)[C@@H](O)[C@H](O)[C@H]2O[C@H]2C[C@](C)(NCc3ccc(C(=O)NCCC[N+](C)(C)Cc4ccc(-c5ccccc5)cc4)cc3)[C@H](O)[C@H](C)O2)Oc2ccc(cc2Cl)[C@H]1O	3.7	7.3	7.3	0.5	7.3	14.7	3.7	14.7	> 250	47		47	0	47	47	47	47	47	
